Where two headings read alike, the source gives them in different places.
Key:
SH-SY5Y cells [1] = tested on: SH-SY5Y cells; note: reference of the scale not given here
endogenous TFE3 = assay: TFE3 nuclear translocation, immunocytochemistry high-content imaging; type: cell-based
endogenous TFEB = assay: TFEB nuclear translocation, immunocytochemistry high-content imaging; type: cell-based
SH-SY5Y cells [2] = assay: AK (adenylate kinase) release ToxiLight cytotoxicity assay; note: reference of the scale not given here
SH-SY5Y cells [3] = assay: Nuclear count from microscopy images (cellular growth and toxicity); note: reference of the scale not given here
[4] = PKIS2 primary screening, DQ Red BSA intensity
[5] = PKIS2 primary screening, DQ Red BSA spot count
[6] = PKIS2 primary screen, DQ Red BSA intensity
[7] = PKIS2 primary screen, DQ Red BSA spot count

Structure (SMILES) | DQ Intensity (SH-SY5Y cells [1]; PKIS2 primary screening) | DQ Spot (SH-SY5Y cells [1]; PKIS2 primary screening) | TFE3 % (endogenous TFE3; PKIS2 primary screening) | TFEB % (endogenous TFEB; PKIS2 primary screening) | AK (SH-SY5Y cells [2]; PKIS2 primary screening) | Nuclear Count (SH-SY5Y cells [3]; PKIS2 primary screening) | DQ Intensity (SH-SY5Y cells [1]; [4]) | DQ Spot (SH-SY5Y cells [1]; [5]) | DQ Intensity (SH-SY5Y cells [1]; [6]) | DQ Spot (SH-SY5Y cells [1]; [7]) | TFE3 % (endogenous TFE3; PKIS2 primary screen) | TFEB % (endogenous TFEB; PKIS2 primary screen) | AK (SH-SY5Y cells [2]; PKIS2 primary screen) | Nuclear Count (SH-SY5Y cells [3]; PKIS2 primary screen)
Cc1cccc(Nc2nc(NCCN)ncc2C(N)=O)c1 [UNC10225029A] | 100.58 | 100.70 | 9.09% | 4.35% | 118.19 | 111.31 | – | – | – | – | – | – | – | –
COCCNC(=O)c1ccc(-c2cc(C(=O)NC3CC3)cc(F)c2C)cc1 [UNC10225229A] | 100.76 | 101.89 | 7.62% | 15.26% | 73.51 | 111.58 | – | – | – | – | – | – | – | –
CN(C(=O)c1ccc(-c2cc(-c3c[nH]nc3-c3ccccn3)ccn2)cc1)C1CCOCC1 [UNC10225473A] | – | – | 13.07% | 8.39% | 101.87 | 84.56 | 126.52 | 117.08 | – | – | – | – | – | –
Cc1n[nH]c2cc(Nc3ccnc(Nc4cccc(CN5CCOCC5)c4)n3)ccc12 [GW682569] | – | – | 9.15% | 6.60% | 83.50 | 85.02 | 93.91 | 112.57 | – | – | – | – | – | –
Cc1cccc(-c2cc(-c3c[nH]nc3-c3ccccn3)ccn2)c1 [UNC10225499A] | – | – | 5.64% | 5.43% | 88.92 | 133.11 | 88.33 | 90.33 | – | – | – | – | – | –
Cc1ccc(C)c(NC(=O)NC2CCN(c3ccnc(Nc4ccc(F)cc4)n3)C2)c1 (stereo not drawn) [GSK1379720] | – | – | 10.49% | 6.06% | 98.80 | 92.38 | 115.10 | 109.75 | – | – | – | – | – | –
FC(F)(F)c1ccccc1-c1cc(-c2c[nH]nc2-c2ccccn2)ccn1 [UNC10225184A] | – | – | 4.50% | 5.60% | 124.66 | 131.35 | 88.51 | 92.76 | – | – | – | – | – | –
Cl.Cl.NCC(NCc1ccc(-c2ccnc3[nH]ccc23)s1)c1ccccc1 (stereo not drawn) [UNC10225471A] | – | – | 13.41% | 4.03% | 98.53 | 123.37 | 100.58 | 94.95 | – | – | – | – | – | –
O=C(NCC1CC1)c1ccc(-c2cc(C(=O)NC3CC3)ccc2F)cc1 [UNC10224986A] | 92.71 | 109.74 | 10.56% | 5.16% | 72.27 | 97.72 | – | – | – | – | – | – | – | –
Cc1ccc(NC(=O)Nc2cc(C(C)(C)C)nn2-c2ccccc2)cc1 [UNC10225353A] | 116.80 | 100.99 | 7.76% | 9.78% | 76.54 | 116.98 | – | – | – | – | – | – | – | –
CNC(=O)c1ccccc1Nc1nc(Nc2ccc(N3CCOCC3)cc2)ncc1Cl [GSK1576028] | – | – | 5.85% | 42.50% | 149.21 | 15.51 | 165.31 | 111.32 | – | – | – | – | – | –
CNC(=O)c1ccccc1Nc1nc(Nc2cccc(CS(C)(=O)=O)c2)ncc1C [GSK1520489] | – | – | 10.71% | 10.40% | 149.13 | 38.33 | 192.20 | 118.45 | – | – | – | – | – | –
COc1cc2ncn(-c3cc(OCc4ccncc4Br)c(C(N)=O)s3)c2cc1OC [UNC10225386A] | 93.85 | 100.07 | 3.25% | 6.47% | 64.35 | 97.54 | – | – | – | – | – | – | – | –
COc1cc2ncn(-c3cc(OCC4CCCCC4)c(C(N)=O)s3)c2cc1OC [UNC10225496A] | 104.41 | 104.84 | 7.72% | 3.76% | 73.76 | 113.87 | – | – | – | – | – | – | – | –
Cc1c(Cn2c(C)nn3c(=O)cc(N4CCOC(C)C4)nc23)cccc1C(F)(F)F (stereo not drawn) [UNC10225005A] | – | – | – | – | – | – | – | – | 85.13 | 83.90 | 10.85% | 4.71% | 90.28 | 125.80
O=C(NCCNc1ccnc(Nc2ccc(F)cc2)n1)Nc1ccccc1F [GSK1379880] | – | – | 7.81% | 3.19% | 82.91 | 133.27 | 104.78 | 97.82 | – | – | – | – | – | –
COc1ccc(CNC(=O)NC2CCN(c3ccnc(Nc4cc(OC)c(OC)c(OC)c4)n3)C2)cc1 (stereo not drawn) [GSK1379748] | – | – | 7.30% | 3.68% | 124.35 | 99.04 | 92.45 | 91.07 | – | – | – | – | – | –

Structure (SMILES) | DQ Intensity (SH-SY5Y cells [1]; PKIS2 primary screening) | DQ Spot (SH-SY5Y cells [1]; PKIS2 primary screening) | TFE3 % (endogenous TFE3; PKIS2 primary screening) | TFEB % (endogenous TFEB; PKIS2 primary screening) | AK (SH-SY5Y cells [2]; PKIS2 primary screening) | Nuclear Count (SH-SY5Y cells [3]; PKIS2 primary screening) | DQ Intensity (SH-SY5Y cells [1]; [4]) | DQ Spot (SH-SY5Y cells [1]; [5]) | DQ Intensity (SH-SY5Y cells [1]; [6]) | DQ Spot (SH-SY5Y cells [1]; [7]) | TFE3 % (endogenous TFE3; PKIS2 primary screen) | TFEB % (endogenous TFEB; PKIS2 primary screen) | AK (SH-SY5Y cells [2]; PKIS2 primary screen) | Nuclear Count (SH-SY5Y cells [3]; PKIS2 primary screen)
Cc1c2ccc(N(C)c3ccnc(Nc4cccc(S(N)(=O)=O)c4)n3)cc2nn1Cc1ccccc1 [GW787226] | – | – | 15.06% | 8.93% | 80.53 | 121.46 | 91.24 | 90.69 | – | – | – | – | – | –
Fc1cccc(COc2ccc(Nc3ncnc4sc(-c5ccc[nH]5)cc34)cc2Cl)c1 [UNC10225101A] | – | – | 15.82% | 8.38% | 123.35 | 106.63 | 109.09 | 86.09 | – | – | – | – | – | –
CCN(CC)CCOc1ccc(Nc2ncc3cc(-c4c(Cl)cccc4Cl)c(=O)n(C)c3n2)cc1 [UNC10225459A] | – | – | – | – | – | – | – | – | 115.72 | 64.83 | 18.27% | 22.54% | 131.29 | 26.96
O=C(Nc1ccccc1F)NC1CCN(c2ccnc(Nc3ccc(F)cc3)n2)C1 (stereo not drawn) [GSK1379722] | – | – | 10.71% | 14.40% | 94.79 | 114.62 | 129.34 | 121.71 | – | – | – | – | – | –
Cn1cc(-c2ccc3c(c2)CCN3C(=O)Cc2cccc(Cl)c2)c2c(N)ncnc21 [UNC10225039A] | 87.65 | 95.36 | 17.54% | 7.96% | 96.09 | 137.18 | – | – | – | – | – | – | – | –
COc1cc(Nc2nccc(-c3c(-c4cccc(NC(=O)c5c(F)cccc5F)c4)nn4ccccc34)n2)cc(OC)c1OC [UNC10225318A] | 105.65 | 109.19 | 5.80% | 6.03% | 96.57 | 94.38 | – | – | – | – | – | – | – | –
Nc1nc(-c2ccc3c(N)n[nH]c3c2)cc(N2CCCC2)n1 [GSK2227430] | – | – | 14.08% | 3.47% | 104.62 | 85.02 | 87.93 | 104.79 | – | – | – | – | – | –
COc1cccc(C2=C(N(C)c3ccccc3)C(=O)NC2=O)c1 [UNC10225293A] | – | – | 13.51% | 4.50% | 74.50 | 78.26 | 96.89 | 106.44 | – | – | – | – | – | –
Cc1occc1-c1ncc(OC[C@@H](N)Cc2c[nH]c3ccccc23)cc1-c1ccc2[nH]nc(C)c2c1.O=C(O)C(F)(F)F [UNC10243880A] | 77.42 | 58.66 | 39.74% | 19.77% | 148.86 | 69.84 | – | – | – | – | – | – | – | –
O=c1cc(N2CCOCC2)nc2n(Cc3cccc(F)c3)ccn12 [UNC10225332A] | 100.57 | 98.19 | 15.66% | 6.97% | 128.93 | 95.52 | – | – | – | – | – | – | – | –
CC(C)c1nc(-c2cccc(NS(=O)(=O)c3c(F)cccc3F)c2F)c(-c2ccnc(Nc3ccc(N4CCOCC4)nc3)n2)s1 [UNC10224991A] | 137.04 | 135.69 | 13.92% | 5.34% | 96.03 | 54.49 | – | – | – | – | – | – | – | –
NCCNS(=O)(=O)c1ccc(-c2ccnc3[nH]ccc23)cc1 [UNC10225023A] | – | – | 9.07% | 3.25% | 82.12 | 129.56 | 104.54 | 94.72 | – | – | – | – | – | –
COc1ccc(Nc2nccc(N3CCC(NC(=O)C(C)c4ccc(Cl)cc4)C3)n2)cc1 (stereo not drawn) [GSK1379735] | – | – | 11.71% | 5.13% | 70.53 | 119.80 | 99.92 | 94.04 | – | – | – | – | – | –
COc1cc2ncn(-c3cc(OCc4ccncc4)c(C(N)=O)s3)c2cc1OC [UNC10225069A] | 66.90 | 87.03 | 7.35% | 3.88% | 99.11 | 104.39 | – | – | – | – | – | – | – | –
Nc1nc(Nc2ccccc2)cc(-c2ccc3c(N)n[nH]c3c2)n1 [GSK2225749] | – | – | 13.67% | 8.82% | 135.05 | 92.29 | 84.54 | 97.02 | – | – | – | – | – | –
COc1ccc(Nc2nccc(N3CCC(NC(=O)c4cccc(C#N)c4)C3)n2)cc1 (stereo not drawn) [GSK1379730] | – | – | 13.54% | 9.20% | 125.87 | 108.33 | 67.56 | 85.55 | – | – | – | – | – | –
COc1cccc(NC(=O)Nc2ccc(C)c(-c3ccc(C(=O)Nc4ccncc4)cc3)c2)c1 [UNC10225200A] | 99.65 | 116.14 | 12.37% | 7.95% | 112.40 | 79.81 | – | – | – | – | – | – | – | –

From PMC9851200, “Multiparameter phenotypic screening for endogenous TFEB and TFE3 translocation identifies novel chemical series modulating lysosome function” (Autophagy, 2022)
